Where two headings read alike, the source gives them in different places.
How the values were obtained:
porcine sclera [1] = assay: Thermal shrinkage temperature analysis of porcine scleral strips
Source text: Thermal shrinkage temperature or denaturation temperature (Ts) is a technique that has been used for decades in studying collagen cross-linking. As collagen fibers are progressively heated, a threshold temperature is reached at which point disruption of hydrogen bonding in the collagen molecule triple helix occurs, resulting in unwinding of the triple helices. The denaturation of tertiary protein structure results in a rapid shrinkage of the tissue of up to 80%. This phenomenon can be expressed in various ways including temperature of onset of tissue shrinkage, temperature at maximal tissue shrinkage, and temperature at 50% of maximal tissue shrinkage, for example. In addition, differential scanning calorimetry (DSC) is related to thermal shrinkage temperature analysis and is widely used to evaluate biomaterial cross-linking. Thermal shrinkage temperature is essentially a simplified version of DSC and can be used effectively to screen the cross-linking efficacy of compounds. For the purposes of this study, the onset of shrinkage is considered the Ts and the temperature at which 50% of maximal shrinkage has occurred is T50. Graphs depicting the relationship between degree of shrinkage and temperature indicate differences in degree of cross-linking between groups. Thus, stabilization of collagen fiber structures through non-enzymatic cross-linking increases Ts and T50.
This system can perform multiple Ts assays in succession, allowing rapid screening of a number of potential cross-linking agents and conditions. […] Inlet and outlet fittings allow for constant circulation of heated water which is modulated by a digitally controlled water bath equipped with a water pump. The entire box is placed on a digital photo scanner connected to a Windows based computer. Beginning at 50° C. the temperature is raised at a rate of 1° C./min and serial scans are taken at every degree increase in temperature up to 80° C. […] As the tissue shrinks, the images are captured by the scanner. The image files are later analyzed for 2-dimensional area using NIH Image J software and % shrinkage calculations are made using Microsoft Excel for graphing purposes. This method obviates the need for removal of tissue pieces from the water bath with manual micrometer measurements as described by the UVR group (Spoerl, E., et al., 2004).
Using this simple, reproducible assay enables the screening of a number of compounds for cross-linking efficacy. This is first performed using porcine eyes because of their low cost. Follow up studies can be performed using human eyes. Porcine eyes are obtained within 6 hrs of sacrifice (Hatfield Meat Packing, Inc., Hatfield Pa.). Eyes showing clear corneas and intact epithelia are chosen for study. […] Each strip is then cross-linked using a nitro agent. […] Opthalmol. 1999; 117:166-169) for 24-96 hrs. Following incubation, the samples are evaluated for degree of cross-linking using the Ts assay as described above.
From the data, Ts curves are generated for each compound and condition studied. Each data point is the average of 3 independent samples.

ARPE-19 cells = test system: ARPE-19 cells
Source text: A cytotoxicity study was undertaken to obtain an impression of the level of cellular tolerance to these compounds. For pilot experiments ARPE-19 cells were used. This is an immortal human retinal pigment epithelial cell line commonly used for experiments related to macular degeneration. In these pilot studies, the ARPE-19 cells serve as a surrogate for cytotoxicity experiments. Primary cultures of bovine corneal endothelial cells were also used in the cytotoxicity studies described. Bovine corneal cells have more direct relevance for evaluating potential cytotoxic effects during cross-linking of living eye tissue.
ARPE-19 cells were grown to 80% confluence in 96 well tissue culture plates. The cells were then exposed to varying concentrations of NaNO2 and 2-nitroethanol in their culture medium and evaluated for cell death using trypan blue (TB) staining (0.4% for 5 min) after 24 hrs.

[2] = test system: fibroblast-populated collagen gels; conditions: 100 mM; pretreatment pH 4.0 24 hours and posttreatment pH 7.4 seven days
Procedure: Biaxial mechanical properties of the collagen gels were examined by performing equibiaxial load controlled experiments after 72 hours of culture for pretreated and 10 days of culture for posttreated collagen gels. To perform the planar biaxial mechanical test, the loading frame was first removed and the gels were floated to the top of their Petri dish using standard media (DMEM with 10% FBS and antibiotics) at 37° C. Gels were loaded by applying equal weights on all sides of the gel simultaneously (equibiaxial loading). First, gels were preconditioned by cyclically applying and removing 1 gram weights on all sides. […] One prominent feature of the preconditioning response in these gels is that the gels undergo some permanent deformation, not relaxing back to their initial dimensions even when fully unloaded.
The magnitude of the permanent deformation associated with preconditioning was quantified by computing the associated strain (E^P11, E^P22) using the unloaded configuration of the gel at the beginning of the mechanical test as the reference state and the new, stable unloaded state achieved at the end of preconditioning as the deformed state. After preconditioning, calibrated weights from 0 to 1000 mg are applied equibiaxially in 100 mg increments. Images of the gel surface are taken 30 seconds after each load application or removal, and the strains associated with each load were computed relative to the preconditioned unloaded reference state at the beginning of the loading run.
The impact of sodium nitrite on vertical deformation of uniaxially constrained gels was measured during each phase of the experiment.
Initially square fibroblast-populated collagen gels were cast and allowed to polymerize for 2 hrs. Markers were painted on the gel surface to allow tracking of deformation in the central region during the remainder of the experiment. […] At 72 hrs, the gel was mechanically tested. […] Then, the gel was loaded in a series of smaller steps and the response quantified (loading phase).

[3] = 4° C.
Procedure: Adult porcine eyes were obtained within 12 hours of. sacrifice and submerged in solutions of 0, 10, 100 mM NaNO2 and 100 mM NaCl buffered with 50 mM NaH2PO4/Na2HPO4 (pH 7.4) following bubbling with 99% Argon/1% O2 in order to limit the amount of potential nitrite auto-oxidation caused by oxygen. Penicillin/Streptomycin was added (10 μl/ml) to prevent bacterial overgrowth. After 24 hours of incubation at 4° C., the aqueous humor was sampled for nitrite concentration using a modification of the Greiss colorimetric assay.
Adult porcine eyes were obtained within 12 hrs of sacrifice and submerged in solutions of 0, 10, 100 mM NaNO2 and 100 mM NaCl buffered with 50 mM NaH2PO4/Na2HPO4 (pH 7.4) following bubbling with 100% Argon in order to limit the amount of potential nitrite auto-oxidation caused by oxygen. Penicillin/Streptomycin was added (10 ul/ml) to prevent bacterial overgrowth. After 24 hrs of incubation at 4° C., the aqueous humor was sampled for nitrite concentration using a modification of the Greiss colorimetric assay.

porcine cornea [4] = conditions: 200 mM, pH 5.0, 37° C., 30 hours
Procedure: (§1) Adult porcine eyes were obtained within 12 hours of sacrifice and submerged in a solution of either 200 mM NaNO2 or 200 mM NaCl buffered with 200 mM NaH2PO4/Na2HPO4 (pH 5.0). Penicillin/Streptomycin was added (10 μl/ml) to prevent bacterial overgrowth. After 30 hours of incubation at 37° C., the corneas were excised at the limbus and photographed.

porcine sclera [5] = conditions: 200 mM, pH 5.0, 37° C., 30 hours
Procedure: as §1

porcine cornea [6] = assay: Gross stiffness of porcine corneal strips handled with a forceps; conditions: 100 mM, pH 7.4, 37° C., 48 hrs
Procedure: Fresh porcine corneal strips and corneoscleral complexes obtained within 6 hrs of sacrifice and incubated at 37° C. in buffered solutions (pH 7.4) containing 20% Dextran (T500) and either 100 mM NaNO2 or 100 mM of one each of the specified β-nitro alcohols
These images were taken from tissues cross-linked with nitrite and the β-nitro alcohols 2-nitroethanol, 2-nitro-1-propanol, and […], for 48 hrs. […] Fresh porcine corneal strips and corneoscleral complexes were obtained within 6 hrs of sacrifice and incubated at 37° C. in buffered solutions (pH 7.4) containing 20% Dextran (T500) and either 100 mM NaNO2 or 100 mM of one each of the β-nitro alcohols. After 48 hrs, the following images were obtained. […] FIGS. 13 (B and D)

porcine cornea [7] = conditions: 200 mM, pH 5.0, 37° C.
Procedure: as §1
After 30 and 80 hours of incubation at 37° C., the corneas were excised at the limbus and subjected to shrinkage temperature (thermal denaturation) analysis. The intact cornea was heated in 2° C. increments every 5 minutes using a digitally controlled water bath. The maximal dimensions in the long and short axis were measured using a micrometer under visualization with an operating microscope. The percentage of tissue shrinkage was then estimated by using 2 dimensional area calculations from the micrometer readings.

type I collagen = type I collagen (Bos taurus, UniProt P02453+P02465); conditions: 7 day incubation, pH 7.4, 4° C.
Sequence of type I collagen (P02453 162-1217 limits assumed): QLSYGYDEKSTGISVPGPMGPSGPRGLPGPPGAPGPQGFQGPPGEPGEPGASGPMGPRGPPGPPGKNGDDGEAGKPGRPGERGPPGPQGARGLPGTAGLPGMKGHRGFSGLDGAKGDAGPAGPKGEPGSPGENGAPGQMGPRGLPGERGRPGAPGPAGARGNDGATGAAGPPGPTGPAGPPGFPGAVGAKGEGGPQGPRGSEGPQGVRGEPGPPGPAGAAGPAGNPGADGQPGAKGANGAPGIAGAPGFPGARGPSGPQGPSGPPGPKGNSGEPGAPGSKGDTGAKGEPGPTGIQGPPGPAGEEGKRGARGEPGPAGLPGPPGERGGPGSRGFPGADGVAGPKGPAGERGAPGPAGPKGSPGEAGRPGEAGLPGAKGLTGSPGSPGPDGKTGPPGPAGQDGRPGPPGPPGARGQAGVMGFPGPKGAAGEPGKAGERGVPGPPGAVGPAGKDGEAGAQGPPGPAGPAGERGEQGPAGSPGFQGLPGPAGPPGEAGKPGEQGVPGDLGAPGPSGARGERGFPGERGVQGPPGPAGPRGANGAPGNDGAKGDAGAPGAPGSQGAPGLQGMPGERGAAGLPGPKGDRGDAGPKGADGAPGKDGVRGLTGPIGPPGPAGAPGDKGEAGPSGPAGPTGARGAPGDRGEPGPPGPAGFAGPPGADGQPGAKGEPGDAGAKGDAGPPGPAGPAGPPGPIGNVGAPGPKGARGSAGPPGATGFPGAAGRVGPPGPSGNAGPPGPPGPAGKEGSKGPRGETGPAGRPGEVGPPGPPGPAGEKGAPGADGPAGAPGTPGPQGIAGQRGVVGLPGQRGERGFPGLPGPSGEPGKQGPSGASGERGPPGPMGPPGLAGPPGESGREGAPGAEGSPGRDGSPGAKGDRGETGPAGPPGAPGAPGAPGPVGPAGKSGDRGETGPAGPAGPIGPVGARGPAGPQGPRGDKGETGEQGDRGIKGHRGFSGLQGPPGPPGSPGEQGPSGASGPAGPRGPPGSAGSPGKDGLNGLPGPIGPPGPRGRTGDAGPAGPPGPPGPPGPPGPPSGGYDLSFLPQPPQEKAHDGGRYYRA
Sequence of type I collagen (P02465 80-1117 limits assumed): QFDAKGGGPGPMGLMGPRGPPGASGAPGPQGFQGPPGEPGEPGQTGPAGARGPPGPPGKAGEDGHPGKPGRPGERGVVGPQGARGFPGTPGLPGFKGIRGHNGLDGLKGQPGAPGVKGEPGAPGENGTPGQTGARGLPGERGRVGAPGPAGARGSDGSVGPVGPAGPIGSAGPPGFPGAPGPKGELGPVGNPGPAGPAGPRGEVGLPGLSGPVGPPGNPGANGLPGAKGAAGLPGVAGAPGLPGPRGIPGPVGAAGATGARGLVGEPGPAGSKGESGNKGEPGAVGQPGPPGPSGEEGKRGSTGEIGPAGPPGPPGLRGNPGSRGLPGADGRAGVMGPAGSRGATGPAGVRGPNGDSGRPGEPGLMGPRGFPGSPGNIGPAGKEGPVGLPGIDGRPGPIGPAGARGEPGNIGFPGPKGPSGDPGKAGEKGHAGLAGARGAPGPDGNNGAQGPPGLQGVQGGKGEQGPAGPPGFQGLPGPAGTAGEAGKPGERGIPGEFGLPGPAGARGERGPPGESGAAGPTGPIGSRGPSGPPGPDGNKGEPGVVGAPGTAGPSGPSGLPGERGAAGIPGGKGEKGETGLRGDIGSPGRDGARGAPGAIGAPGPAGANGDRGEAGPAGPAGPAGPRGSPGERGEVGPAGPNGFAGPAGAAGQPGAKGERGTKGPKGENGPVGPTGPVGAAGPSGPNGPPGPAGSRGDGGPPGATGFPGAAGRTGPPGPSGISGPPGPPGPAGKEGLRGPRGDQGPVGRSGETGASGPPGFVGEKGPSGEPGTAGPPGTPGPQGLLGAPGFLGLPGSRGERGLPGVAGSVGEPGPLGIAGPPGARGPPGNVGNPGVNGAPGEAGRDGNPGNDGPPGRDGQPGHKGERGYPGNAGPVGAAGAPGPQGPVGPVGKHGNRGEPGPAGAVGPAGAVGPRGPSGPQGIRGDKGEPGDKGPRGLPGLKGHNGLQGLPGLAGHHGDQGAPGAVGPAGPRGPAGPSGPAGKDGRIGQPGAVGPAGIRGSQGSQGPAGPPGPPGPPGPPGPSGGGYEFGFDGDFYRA
Procedure: Samples of pepsin-solubilized, bovine skin collagen type I (Purecol, 3 mg/ml, Inamed Corporation, Fremont, Calif., USA) dissolved in 0.012N HCl were spiked with dH2O containing 1M NaNO2 or NaCl concentration to obtain final concentrations of 0 mM, 10 mM, 100 mM NaNO2, and 100 mM NaCl. […] These conditions were identical to those used in the preincubation treatment of collagen for biomechanical testing. Following a 24 hour incubation (4° C.), an aliquot from each sample was added into SDS-PAGE sample buffer (Biorad) in a ratio of 1:2 (sample:sample buffer), reduced by heating at 100° C. for 5 minutes with dithiothreitol (DTT), and analyzed by SDS-PAGE. The separating gel was 5% acrylamide and stacking gel 4%. Equivalent quantities of protein (6 μg per lane) were loaded onto separate wells. The samples were run at 25 volts for approximately 3.5 hours, which was the time necessary for the dye front to leave the bottom of the gel. The gels were then stained with Coomasie blue solution for no less than 3 hours. Following destaining, the gels were digitally photographed for densitometric analysis, which was carried out using the Un-Scan-it software program version 4.1 (Silk Scientific Corp). […]

Solubility in water = type: physicochemical
corneal endothelial cell = conditions: 3 hrs exposure, rabbit organ culture, electron microscopy, Green 1977; cited from earlier work
[8] = NaNO2 100 mM pH 3 with 1 mM urea
[9] = NaNO2 100 mM pH 3 with 10 mM urea
[10] = NaNO2 100 mM pH 3 with 100 mM urea
[11] = 100 mM, 1% DMSO, pH 7.4, 96 hrs

For `O=N[O-].[Na+]` [NaNO2, sodium nitrite], the “blocking of the cross-linking effect by equimolar urea” value (porcine sclera [1]) was “unable to block”, the T50 (porcine sclera [1]; 100 mM, pH 3, 96 hrs) was 69.3 °C and the “T50 Δ” value (porcine sclera [1]; 100 mM, pH 3, 96 hrs) was 4.0 °C. For the same compound, the T50 (porcine sclera [1]; 100 mM, pH 5, 96 hrs) was 67.3 °C, the “T50 Δ” value (porcine sclera [1]; 100 mM, pH 5, 96 hrs) was 2.0 °C and the T50 (porcine sclera [1]; [8]) was 70.1 °C. The “T50 Δ” value (porcine sclera [1]; [8]) was 4.8 °C, the T50 (porcine sclera [1]; [9]) was 69.7 °C and the “T50 Δ” value (porcine sclera [1]; [9]) was 4.4 °C. The T50 (porcine sclera [1]; [10]) was 65.6 °C, the “T50 Δ” value (porcine sclera [1]; [10]) was 0.3 °C and the “shifts in Ts (in words)” value (porcine sclera [1]; pH 3) was “approximately equal shifts in Ts”. For the same compound, the “T50 (temperature at 50% of maximal shrinkage)” value (porcine sclera [1]; pH 7.4) was 65.7 °C, the “T50 Δ (change in 50% shrinkage temperature compared to control)” value (porcine sclera [1]; pH 7.4) was 0.4 °C and the “effect on Ts (in words)” value (porcine sclera [1]; pH 7.4) was “no effect”. For the same compound, the “tolerable level relative to genipin” value (ARPE-19 cells) was “at least 100 ×”, the “tolerance by cells (trypan blue)” value (ARPE-19 cells; 100 mM, 24 hrs) was “tolerated by cells” and the highest tolerated level (ARPE-19 cells; ARPE-19) was 100 mM. For the same compound, the “vertical deformation associated with preconditioning” value [2] was “reduced vertical deformation associated with preconditioning”, the “vertical deformation at 1 g equibiaxial load” value [2] was “reduced vertical deformation at 1 g equibiaxial load” and the vertical remodeling [2] was “reduced vertical remodeling”. For the same compound, the “Nitrite concentration in the aqueous humor, of the incubation fluid” value ([3]; 10 mM NaNO2, pH 7.4, 24 hours) was 35.5%, the “Nitrite concentration in the aqueous humor, of the incubation fluid” value ([3]; 100 mM NaNO2, pH 7.4, 24 hours) was 62.8% and the “contour changes in the corneas” value (porcine cornea [4]) was “Dramatic contour changes”. The “contour changes in sclera samples” value (porcine sclera [5]) was “dramatic contour changes”, the “stiffness change when handled with a forceps” value (porcine cornea [6]) was “intermediate effect” and the “increase of onset of tissue shrinkage” value (porcine cornea [7]; 30 hours of treatment) was “approximately 4 °C”. The “increase of onset of tissue shrinkage” value (porcine cornea [7]; 80 hours of treatment) was ~8 °C, the “collagen cross-linking by SDS-PAGE” value (type I collagen; 10 mM) was “No differences are observed” and the “collagen cross-linking by SDS-PAGE” value (type I collagen; 100 mM) was “cross-linking of collagen primary strands is indicated”.
In the case of `CC(C)CCON=O` [Isopentyl nitrite, isopentyl nitrite, reference compound], the T50 (porcine sclera [1]; [11]) is reported as 65.4 °C, the “T50 Δ” value (porcine sclera [1]; [11]) is reported as 0.1 °C and the “shift in Ts (in words)” value (porcine sclera [1]; neutral pH, up to 100 mM) is reported as “did not result in a shift in Ts”. The solubility in water (Solubility in water) was “poor solubility in water”.
In the case of Benzalkonium chloride, the Toxic concentration (corneal endothelial cell) is listed as “(0.0001%)”.

— US8466203B2, “Method of stabilizing human eye tissue by reaction with nitrite and related agents such as nitro compounds” (priority 2006, dated 2013)
